Experiment [1] concerns the target T1, nAchR α3β4 (Homo sapiens, UniProt P30926+P32297).
T1 construct: host or cells: CHO-K1
Kind of experiment: nAchR α3β4 radioligand binding (125I-epibatidine, recombinant CHO-K1 cells). The settings on record: 125I-epibatidine competition, human recombinant CHO-K1 cells, mean, n = 2; read-out: Ki, α3β4 nicotinic acetylcholine receptors. As to the method: The experiments were carried out in the Eurofins Discovery laboratory, and the methods were referenced from previous studies with modifications ([Michelmore et al., 2002]; [Zaveri et al., 2010]). The competitive binding of the samples and ^125I-epibatidine to the nAchR α3β4 in human recombinant CHO-K1 cells was assessed using a radioligand binding method. The ability of the compound to competitively bind to nAchR α3β4 (Ki) was determined by detecting the signal value of the radioligand bound to the receptor.

The target in experiment [2] is T2, norepinephrine transporter (Homo sapiens, UniProt P23975).
T2 construct: purchased PerkinElmer, Inc RBHNETM400UA
Kind of experiment: Norepinephrine transporter (NET) radioligand binding (3H-Nisoxetine). The settings on record: 3H-Nisoxetine competition, mean, n = 2; read-out: Ki, norepinephrine transporter. As to the method:
The experiments were carried out in the Pharmaron laboratory, and the methods were referenced from previous studies with modifications ([Bylund and Toews, 1993]; [Galli et al., 1995]). Competitive binding of the compound and ^3H-Nisoxetine to NETs was assessed using a radioligand binding method. The ability of the compound to competitively bind to NET (Ki) was determined by detecting the signal value of the radioligand bound to the transporter using a Microbeta instrument (2450, Perkin Elmer, Massachusetts, United States).

The test system of experiment [3] is ICR mice. In words: Tail suspension test. As to conditions: TST, oral, 1 h after administration, deDM 10 and 18 mg/kg, BUP 50 mg/kg, deDM + BUP 10 + 50 and 18 + 50 mg/kg. It counts as in vivo. As to the method: The TST was adapted from the behavioral despair test described by Nguyen et al. ([Nguyen et al., 2017]), with some modifications. […] All compounds were administered orally via gavage at a volume of 10 mL/kg body weight, with the vehicle group receiving an equivalent volume of saline. One hour after administration, mice underwent a tail suspension test (TST). For the TST, each mouse was suspended by its tail, with adhesive tape attached 2 cm from the tail tip and secured to a metal rod. Care was taken to ensure a minimum distance of 15 cm between the suspended animal and the surrounding objects. The test was performed using the ANY-maze version 4.63 video tracking program (Stoelting Co., Wood Dale, IL, United States) for a total duration of 6 min. The initial 2 min served as an acclimatization period and were not scored. The immobility time during the subsequent 4 min was measured using the same software. Immobility was defined as mouse hanging passively and motionless. The ANY-Maze software parameters were set as follows: acclimatization period = 120 s, test duration = 240 s, minimum immobility time = 2 s, and immobility sensitivity = 75%. […]

Experiment [4] relates to Sprague-Dawley rats. Kind of experiment: Reserpine-induced hypothermia in rats. It counts as in vivo. As to conditions: oral, 30 min after treatment. As to the method:
A reserpine-induced hypothermia test was performed according to the method described by Rojas-Corrales et al. ([Rojas-Corrales et al., 2004]; [Dhamija et al., 2017]), with some modifications. 80 male Sprague-Dawley rats were administered an intraperitoneal injection of reserpine (4 mg/kg). 18 h after the injection, rectal temperatures were measured using a rectal probe connected to a thermometer (MC-347, Omron Healthcare, Dalian, China). Rats with body temperatures not exceeding 34.5°C were considered successfully modeled. […] An additional group of ten rats not treated with reserpine served as the normal control. After the group assignment, the second phase of compound administration was initiated. The normal and model control groups received oral saline (10 mL/kg), whereas the other groups received their respective compounds orally at the specified doses, all in an equivalent volume (10 mL/kg). Rectal temperatures were measured 30 min after treatment to assess the effect of compounds in each group on the reserpine-induced hypothermia model. All experimental procedures were conducted in strict accordance with guidelines approved by the Institutional Animal Care and Use Committee of Shenzhen Salubris Pharmaceuticals Co., Ltd. A P value of less than 0.05 was considered statistically significant for comparisons between groups.

T1 sequence (P32297 32-505): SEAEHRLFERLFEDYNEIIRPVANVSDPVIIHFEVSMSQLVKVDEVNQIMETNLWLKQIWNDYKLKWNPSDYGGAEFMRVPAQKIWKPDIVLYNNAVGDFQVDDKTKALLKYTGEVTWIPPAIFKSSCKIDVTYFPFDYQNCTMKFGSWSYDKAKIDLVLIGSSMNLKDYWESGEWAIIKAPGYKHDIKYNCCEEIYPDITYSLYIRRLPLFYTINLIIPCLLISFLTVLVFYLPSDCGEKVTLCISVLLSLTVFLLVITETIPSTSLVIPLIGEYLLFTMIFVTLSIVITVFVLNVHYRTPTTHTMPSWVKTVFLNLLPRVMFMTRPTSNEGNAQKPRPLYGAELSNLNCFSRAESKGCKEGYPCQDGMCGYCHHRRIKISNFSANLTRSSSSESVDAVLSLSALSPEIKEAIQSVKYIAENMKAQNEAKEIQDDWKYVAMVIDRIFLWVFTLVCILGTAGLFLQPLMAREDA
T1 sequence (P30926 22-498): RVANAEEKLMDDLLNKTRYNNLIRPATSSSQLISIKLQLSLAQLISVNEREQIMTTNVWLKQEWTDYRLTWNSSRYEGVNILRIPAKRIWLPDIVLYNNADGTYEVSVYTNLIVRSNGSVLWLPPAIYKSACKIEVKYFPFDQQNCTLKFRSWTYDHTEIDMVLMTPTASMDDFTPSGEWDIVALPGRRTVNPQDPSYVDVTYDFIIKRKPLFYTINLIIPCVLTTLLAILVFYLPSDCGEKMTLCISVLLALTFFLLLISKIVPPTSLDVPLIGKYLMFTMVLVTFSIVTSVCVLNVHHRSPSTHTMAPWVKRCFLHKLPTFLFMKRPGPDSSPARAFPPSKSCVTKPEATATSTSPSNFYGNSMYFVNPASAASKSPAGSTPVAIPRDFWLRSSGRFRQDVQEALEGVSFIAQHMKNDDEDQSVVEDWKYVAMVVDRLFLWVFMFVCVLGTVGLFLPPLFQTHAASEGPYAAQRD
T2 sequence (P23975 whole entry): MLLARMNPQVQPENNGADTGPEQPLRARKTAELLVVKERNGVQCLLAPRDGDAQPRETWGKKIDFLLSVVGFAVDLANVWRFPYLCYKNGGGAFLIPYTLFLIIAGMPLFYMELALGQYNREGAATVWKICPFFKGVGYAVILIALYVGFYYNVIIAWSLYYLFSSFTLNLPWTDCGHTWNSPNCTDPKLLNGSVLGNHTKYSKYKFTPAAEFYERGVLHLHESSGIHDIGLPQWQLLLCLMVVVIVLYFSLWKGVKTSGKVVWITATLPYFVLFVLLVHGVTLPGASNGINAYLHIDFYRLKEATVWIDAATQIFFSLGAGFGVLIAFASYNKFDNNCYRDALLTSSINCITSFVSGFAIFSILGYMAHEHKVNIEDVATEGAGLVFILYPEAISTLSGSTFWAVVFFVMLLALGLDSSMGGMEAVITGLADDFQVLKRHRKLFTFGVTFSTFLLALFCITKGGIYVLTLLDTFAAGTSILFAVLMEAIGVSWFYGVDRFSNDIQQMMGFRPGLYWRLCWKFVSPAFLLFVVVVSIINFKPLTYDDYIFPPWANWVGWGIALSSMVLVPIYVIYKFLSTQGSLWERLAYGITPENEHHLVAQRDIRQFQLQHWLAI

On to deuterated dextromethorphan [deDM], for which the Ki in experiment [1] came to 15.8 µM; in experiment [2], 17.1 µM. In addition, the “immobilization time compared to the vehicle group” value in experiment [3] is reported as “did not significantly reduce the immobilization time”. The “body temperature compared with the model (vehicle) group” value in experiment [4] (reserpine 4 mg/kg i.p. rats, BUP 40 mg/kg, deDM 5 and 10 mg/kg, deDM + BUP 5 + 40 and 10 + 40 mg/kg) is listed as “increased the body temperature of model animals in a dose-dependent manner”. For the same substance, the “body temperature, high dose compared with the model (vehicle) group” value in experiment [4] (reserpine rats, 10 mg/kg) is recorded as “reaching a statistically significant difference”.

The term Ki denotes a dissociation constant, usually derived from enzyme kinetics or from competition with a known ligand.
